Assay results: PubChem BioAssay AID330 (DTP/NCI, 2004)
Where “and” joins values, the source holds several entries; their conditions need not be identical. Equal entries are not always repeated. Toxic doses and inconclusive results are not listed. Rule for the calls: active = survival T/C of 150% or more; inactive = T/C below 125% in these data. Peptide text beside a SMILES is read from it. * marks the point of attachment. Cbz = O=C(OCc1ccccc1)*

Test system: P388 leukemia ip, CD2F1 mice, survival T/C
Experiment: NCI In Vivo Anticancer Drug Screen. Data for tumor model P388 Leukemia (intraperitoneal) in CD2F1 (CDF1) mice
Details: endpoint: median survival time, higher = longer survival
In short: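 Mice carrying the transplanted tumor received test compound or vehicle. Survival was recorded in each group, and the value is the treated-group measurement divided by that of the vehicle-treated control group.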

[1] = dose: 12.5 mg/kg/injection, schedule: Q01DX009 (ip), vehicle: saline with Tween-80
[2] = dose: 25.0 mg/kg/injection, schedule: Q01DX009 (ip), vehicle: saline with Tween-80
[3] = dose: 50.0 mg/kg/injection, schedule: Q01DX009 (ip), vehicle: saline with Tween-80
[4] = dose: 50.0 mg/kg/injection, schedule: Q01DX005 (ip), vehicle: Klucel (hydroxypropylcellulose) (HPC)
[5] = dose: 100.0 mg/kg/injection, schedule: Q01DX005 (ip), vehicle: Klucel (hydroxypropylcellulose) (HPC)
[6] = dose: 200.0 mg/kg/injection, schedule: Q01DX005 (ip), vehicle: Klucel (hydroxypropylcellulose) (HPC)
[7] = dose: 60.0 mg/kg/injection, schedule: Q01DX005 (ip), vehicle: Klucel (hydroxypropylcellulose) (HPC)
[8] = dose: 120.0 mg/kg/injection, schedule: Q01DX005 (ip), vehicle: Klucel (hydroxypropylcellulose) (HPC)
[9] = dose: 240.0 mg/kg/injection, schedule: Q01DX005 (ip), vehicle: Klucel (hydroxypropylcellulose) (HPC)
[10] = dose: 12.5 mg/kg/injection, schedule: Q01DX009 (ip), vehicle: Klucel (hydroxypropylcellulose) (HPC)
[11] = dose: 25.0 mg/kg/injection, schedule: Q01DX009 (ip), vehicle: Klucel (hydroxypropylcellulose) (HPC)
[12] = dose: 50.0 mg/kg/injection, schedule: Q01DX009 (ip), vehicle: Klucel (hydroxypropylcellulose) (HPC)
[13] = dose: 100.0 mg/kg/injection, schedule: Q01DX009 (ip), vehicle: Klucel (hydroxypropylcellulose) (HPC)
[14] = dose: 100.0 mg/kg/injection, schedule: Q01DX009 (ip), vehicle: saline with Tween-80
[15] = dose: 50.0 mg/kg/injection, schedule: Q01DX005 (ip), vehicle: saline with Tween-80
[16] = dose: 100.0 mg/kg/injection, schedule: Q01DX005 (ip), vehicle: saline with Tween-80
[17] = dose: 200.0 mg/kg/injection, schedule: Q01DX005 (ip), vehicle: saline with Tween-80
[18] = dose: 200.0 mg/kg/injection, schedule: Q01DX009 (ip), vehicle: Klucel (hydroxypropylcellulose) (HPC)
[19] = dose: 50.0 mg/kg/injection, schedule: Q01DX005 (ip), vehicle: saline
[20] = dose: 100.0 mg/kg/injection, schedule: Q01DX005 (ip), vehicle: saline
[21] = dose: 200.0 mg/kg/injection, schedule: Q01DX005 (ip), vehicle: saline
[22] = dose: 12.5 mg/kg/injection, schedule: Q01DX005 (ip), vehicle: saline
[23] = dose: 25.0 mg/kg/injection, schedule: Q01DX005 (ip), vehicle: saline

Measured: T/C

O=C(O)c1nnc(C(=O)O)nn1
inactive: dose: 6.25 mg/kg/injection, schedule: Q01DX009 (ip), vehicle: water 98 % of control | dose: 12.5 mg/kg/injection, schedule: Q01DX009 (ip), vehicle: water 103 % of control | dose: 25.0 mg/kg/injection, schedule: Q01DX009 (ip), vehicle: water 102 % of control | dose: 50.0 mg/kg/injection, schedule: Q01DX009 (ip), vehicle: water 100 % of control | dose: 100.0 mg/kg/injection, schedule: Q01DX009 (ip), vehicle: water 90 % of control

C1=CC2C3CCC(C3)C2C1 (stereo not given)
inactive: dose: 100.0 mg/kg/injection, schedule: Q04DX003 (ip), vehicle: saline with Tween-80 113 % of control | dose: 200.0 mg/kg/injection, schedule: Q04DX003 (ip), vehicle: saline with Tween-80 100 % of control | dose: 400.0 mg/kg/injection, schedule: Q04DX003 (ip), vehicle: saline with Tween-80 104 % of control

CC(C)c1ccc(/C=C/c2ccc(N(C)C)cc2)cc1
inactive: dose: 50.0 mg/kg/injection, schedule: Q01DX009 (sc), vehicle: olive oil, sesame oil, peanut oil 100 % of control | dose: 100.0 mg/kg/injection, schedule: Q01DX009 (sc), vehicle: olive oil, sesame oil, peanut oil 100 % of control | dose: 200.0 mg/kg/injection, schedule: Q01DX009 (sc), vehicle: olive oil, sesame oil, peanut oil 97 % of control

CN1CCCN(C(c2ccccc2)c2ccc(Cl)cc2)CC1 (stereo not given)
inactive: dose: 6.25 mg/kg/injection, schedule: Q01DX009 (ip), vehicle: saline with Tween-80 107 % of control | [1] 114 % of control and 115 % of control | [2] 107 % of control and 114 % of control | [3] 120 % of control

O=S(=O)(O)CN1CCN(CCN(CS(=O)(=O)O)CS(=O)(=O)O)CC1
inactive: [4] 100 % of control | [5] 100 % of control | [6] 96 % of control

COc1cccc(/C=C2/C(=O)N(c3ccccc3)N=C2C)c1OC
inactive: [7] 101 % of control | [8] 100 % of control | [9] 110 % of control

CC1=C(C)/C(=C/c2ccccn2)NC1=O
inactive: [7] 98 % of control | [8] 105 % of control | [9] 98 % of control

N#CNc1nc2ccccc2[nH]1
inactive: dose: 6.25 mg/kg/injection, schedule: Q01DX009 (ip), vehicle: Klucel (hydroxypropylcellulose) (HPC) 100 % of control | [10] 103 % of control | [11] 108 % of control | [12] 101 % of control | [13] 100 % of control

CCN(CC)CCNC(=O)c1ccc2c(c1)C(=O)c1ccccc1C2=O
inactive: dose: 100.0 mg/kg/injection, schedule: Q04DX003 (ip), vehicle: saline 108 % of control | dose: 200.0 mg/kg/injection, schedule: Q04DX003 (ip), vehicle: saline 119 % of control

COc1ccc2c(C)cc(N/N=C/c3ccccc3)nc2c1
inactive: [4] 89 % of control | [5] 98 % of control | [6] 98 % of control

O=C(O)CCSC1=CC(=O)c2ccccc2C1=O
inactive: dose: 6.25 mg/kg/injection, schedule: Q04DX003 (ip), vehicle: gum acacia 115 % of control | dose: 12.5 mg/kg/injection, schedule: Q04DX003 (ip), vehicle: gum acacia 110 % of control

O=c1nc(Nc2cccc(Cl)c2)oc2cc(Cl)oc(=O)c12
inactive: [1] 109 % of control | [2] 109 % of control | [3] 113 % of control and 115 % of control | [14] 95 % of control

CCC(C)C(NC(=O)C(CCCCN)N(C(=O)OCc1ccccc1)C(=O)OCc1ccccc1)C(=O)O (stereo not given)
inactive: [15] 99 % of control | [16] 90 % of control | [17] 94 % of control

N=C(N)SCc1cccc(C(=O)O)c1
inactive: [4] 110 % of control | [5] 105 % of control | [6] 96 % of control

CC(O)C(NC(=O)C(Cc1ccc(O)cc1)NC(=O)OCc1ccccc1)C(=O)O (stereo not drawn) (Cbz-Tyr-Thr-OH; configuration not given here)
inactive: dose: 50.0 mg/kg/injection, schedule: Q01DX005 (ip), vehicle: suspension in saline 105 % of control | dose: 100.0 mg/kg/injection, schedule: Q01DX005 (ip), vehicle: suspension in saline 96 % of control | dose: 200.0 mg/kg/injection, schedule: Q01DX005 (ip), vehicle: suspension in saline 111 % of control

COc1ccc(-n2c(N)c(C#N)c3c(c2=S)CCCC3)cc1
inactive: dose: 50.0 mg/kg/injection, schedule: Q01DX005 (ip), vehicle: Klucel + Tween-80 100 % of control | dose: 100.0 mg/kg/injection, schedule: Q01DX005 (ip), vehicle: Klucel + Tween-80 104 % of control | dose: 200.0 mg/kg/injection, schedule: Q01DX005 (ip), vehicle: Klucel + Tween-80 95 % of control

CCOC(=O)C(Br)c1cccc(OC)c1 (stereo not given)
inactive: [14] 91 % of control | dose: 200.0 mg/kg/injection, schedule: Q01DX009 (ip), vehicle: saline with Tween-80 95 % of control | dose: 400.0 mg/kg/injection, schedule: Q01DX009 (ip), vehicle: saline with Tween-80 95 % of control

CO[C@H]1/C=C/O[C@@]2(C)Oc3c(C)c(O)c4c(O)c(c(/C=N/N5C(C)CN(Cc6ccc(C#N)cc6)CC5C)c(O)c4c3C2=O)NC(=O)/C(C)=C\C=C\[C@H](C)[C@H](O)[C@@H](C)[C@@H](O)[C@@H](C)[C@H](OC(C)=O)[C@@H]1C (stereo not given in full)
inactive: [10] 93 % of control | [1] 107 % of control | [11] 87 % of control | [2] 92 % of control | [12] 86 % of control | [3] 100 % of control and 95 % of control | [13] 107 % of control | [14] 113 % of control | [18] 107 % of control

O=C(c1cc(-c2ccccc2)nc2ccccc12)n1c(=O)oc(=O)c2cc([N+](=O)[O-])ccc21
inactive: [19] 97 % of control | [20] 101 % of control | [21] 99 % of control

CCOc1cc2c(cc1C/C=C/c1ccccc1)OCO2
inactive: [15] 100 % of control | [16] 110 % of control | [17] 101 % of control

NC(=O)/C(N=Nc1ccccc1I)=N\Nc1ccccc1I
inactive: [4] 97 % of control | [5] 98 % of control | [6] 97 % of control

CC(=O)OCC1OC(S[As](C)CCO)C(OC(C)=O)C(OC(C)=O)C1OC(C)=O (stereo not given)
inactive: [10] 103 % of control and 109 % of control | [11] 102 % of control and 113 % of control | [12] 103 % of control and 117 % of control and 122 % of control | [13] 111 % of control and 116 % of control | [18] 108 % of control

BrCC[Se]c1ccccc1
inactive: [2] 103 % of control | [3] 112 % of control and 117 % of control | [14] 120 % of control and 124 % of control

OC1C(c2ccccc2)=C(c2ccccc2)C2(c3ccccc3)CC12c1ccccc1 (stereo not given)
inactive: dose: 12.5 mg/kg/injection, schedule: Q04DX003 (ip), vehicle: saline with Tween-80 93 % of control | dose: 25.0 mg/kg/injection, schedule: Q04DX003 (ip), vehicle: saline with Tween-80 117 % of control | dose: 50.0 mg/kg/injection, schedule: Q04DX003 (ip), vehicle: saline with Tween-80 88 % of control

O=[N+]([O-])c1ccc2c(c1)c(S(=O)(=O)O)cc1nonc12
inactive: [22] 98 % of control | [23] 95 % of control | [15] 95 % of control | [19] 90 % of control | [17] 93 % of control

CN(C)CCC(=O)C(=Cc1ccccc1)C(=O)CCN(C)C
inactive: [19] 114 % of control | [20] 99 % of control | [21] 101 % of control

O=S1(=O)OCCCCO1
inactive: [22] 107 % of control | [23] 100 % of control

O=C1CC(O)(c2ccccc2)CS1 (stereo not given)
inactive: dose: 100.0 mg/kg/injection, schedule: Q04DX003 (ip), vehicle: Klucel (hydroxypropylcellulose) (HPC) 107 % of control | dose: 200.0 mg/kg/injection, schedule: Q04DX003 (ip), vehicle: Klucel (hydroxypropylcellulose) (HPC) 105 % of control | dose: 400.0 mg/kg/injection, schedule: Q04DX003 (ip), vehicle: Klucel (hydroxypropylcellulose) (HPC) 100 % of control

CCOC(=O)C1=NN(C)C(=O)C1
inactive: dose: 100.0 mg/kg/injection, schedule: Q01DX001 (ip), vehicle: saline with Tween-80 99 % of control | dose: 200.0 mg/kg/injection, schedule: Q01DX001 (ip), vehicle: saline with Tween-80 115 % of control | dose: 400.0 mg/kg/injection, schedule: Q01DX001 (ip), vehicle: saline with Tween-80 104 % of control
